From patent US11708348B2, “Protease inhibitors for treatment of coronavirus infections” (The Scripps Research Institute, priority 2021, dated 2023)

Tested on: SARS-CoV-2 strain USA-WA1/2020
Assay: microbe, parasite or virus in culture
Format: cell-based
Conditions: Severe acute respiratory syndrome coronavirus 2, HeLa-ACE2, 24 h, HeLa-ACE2 cells, SARS-CoV-2 infection, 24 h; class symbols; read-out: EC50, uM (Hela)

SMILES	EC50 [µM]
Cc1ccccc1NC(=O)C(=O)N[C@@H](Cc1ccccc1)C(=O)N[C@@H](C[C@@H]1CCNC1=O)C(=O)COc1c(F)c(F)cc(F)c1F [Compound 106, N1-((S)-1-oxo-1-(((S)-3-oxo-1-((S)-2-oxopyrrolidin-3-yl)-4-(2,3,5,6-tetrafluorophenoxy)butan-2-yl)amino)-3-phenylpropan-2-yl)-N2-(o-tolyl)oxalamide]	< 0.05
Cc1ccccc1N(C)C(=O)C(=O)N[C@@H](CC(C)C)C(=O)N[C@@H](C[C@@H]1CCNC1=O)C(=O)COc1c(F)c(F)cc(F)c1F [Compound 107, N1-methyl-N2-((S)-4-methyl-1-oxo-1-(((S)-3-oxo-1-((S)-2-oxopyrrolidin-3-yl)-4-(2,3,5,6-tetrafluorophenoxy)butan-2-yl)amino)pentan-2-yl)-N1-(o-tolyl)oxalamide]	0.2 to 0.5
O=C(Nc1ccccc1F)C(=O)N[C@@H](CCC1CCCCC1)C(=O)N[C@@H](C[C@@H]1CCNC1=O)C(=O)COc1c(F)c(F)cc(F)c1F [Compound 108, N1-((S)-4-cyclohexyl-1-oxo-1-(((S)-3-oxo-1-((S)-2-oxopyrrolidin-3-yl)-4-(2,3,5,6-tetrafluorophenoxy)butan-2-yl)amino)butan-2-yl)-N2-(2-fluorophenyl)oxalamide]	0.2 to 0.5
O=C(Nc1ccccc1F)C(=O)N[C@@H](CC1CC1)C(=O)N[C@@H](C[C@@H]1CCNC1=O)C(=O)COc1c(F)c(F)cc(F)c1F [Compound 109, N1-((S)-3-cyclopropyl-1-oxo-1-(((S)-3-oxo-1-((S)-2-oxopyrrolidin-3-yl)-4-(2,3,5,6-tetrafluorophenoxy)butan-2-yl)amino)propan-2-yl)-N2-(2-fluorophenyl)oxalamide]	< 0.05
O=C(N[C@@H](CC1CCCCC1)C(=O)N[C@@H](C[C@@H]1CCNC1=O)C(=O)COc1c(F)c(F)cc(F)c1F)c1cc(-c2ccccc2F)on1 [Compound 110, N-((S)-3-cyclohexyl-1-oxo-1-(((S)-3-oxo-l-((S)-2-oxopyrrolidin-3-yl)-4-(2,3,5,6-tetrafluorophenoxy)butan-2-yl)amino)propan-2-yl)-5-(2-fluorophenyl)isoxazole-3-carboxamide]	0.2 to 0.5
O=C(Nc1ccccc1Cc1ccccc1)C(=O)N[C@@H](CC1CCCCC1)C(=O)N[C@@H](C[C@@H]1CCNC1=O)C(=O)COc1c(F)c(F)cc(F)c1F [Compound 111, N1-(2-benzylphenyl)-N2-((S)-3-cyclohexyl-1-oxo-1-(((S)-3-oxo-1-((S)-2-oxopyrrolidin-3-yl)-4-(2,3,5,6-tetrafluorophenoxy)butan-2-yl)amino)propan-2-yl)oxalamide]	0.05 to 0.2
COc1ccccc1NC(=O)C(=O)N[C@@H](CC(C)C)C(=O)N[C@@H](C[C@@H]1CCNC1=O)C(=O)COc1c(F)c(F)cc(F)c1F [Compound 112, N1-(2-methoxyphenyl)-N2-((S)-4-methyl-1-oxo-1-(((S)-3-oxo-1-((S)-2-oxopyrrolidin-3-yl)-4-(2,3,5,6-tetrafluorophenoxy)butan-2-yl)amino)pentan-2-yl)oxalamide]	0.05 to 0.2
CC(C)C[C@H](NC(=O)C(=O)Nc1ccccc1OC(F)(F)F)C(=O)N[C@@H](C[C@@H]1CCNC1=O)C(=O)COc1c(F)c(F)cc(F)c1F [Compound 113, N1-((S)-4-methyl-1-oxo-1-(((S)-3-oxo-1-((S)-2-oxopyrrolidin-3-yl)-4-(2,3,5,6-tetrafluorophenoxy)butan-2-yl)amino)pentan-2-yl)-N2-(2-(trifluoromethoxy)-phenyl)oxalamide]	< 0.05
Cc1cc(C(=O)N[C@@H](CC(C)C)C(=O)N[C@@H](C[C@@H]2CCNC2=O)C(=O)COc2c(F)c(F)cc(F)c2F)no1 [Compound 114, 5-methyl-N-((S)-4-methyl-1-oxo-1-(((S)-3-oxo-1-((S)-2-oxopyrrolidin-3-yl)-4-(2,3,5,6-tetrafluorophenoxy)butan-2-yl)amino)pentan-2-yl)isoxazole-3-carboxamide]	0.5 to 1
Cc1cc(C(=O)N[C@H](C(=O)N[C@@H](CC(C)C)C(=O)N[C@@H](C[C@@H]2CCNC2=O)C(=O)COc2c(F)c(F)cc(F)c2F)C(C)C)no1 [Compound 115, 5-methyl-N-((S)-3-methyl-1-(((S)-4-methyl-1-oxo-1-(((S)-3-oxo-1-((S)-2-oxopyrrolidin-3-yl)-4-(2,3,5,6-tetrafluorophenoxy)butan-2-yl)amino)pentan-2-yl)amino)-1-oxobutan-2-yl)isoxazole-3-carboxamide]	0.2 to 0.5
Cc1ccccc1NC(=O)C(=O)N[C@@H](CC1CC1)C(=O)N[C@@H](C[C@@H]1CCNC1=O)C(=O)COc1c(F)c(F)cc(F)c1F [Compound 116, N1-((S)-3-cyclopropyl-1-oxo-1-(((S)-3-oxo-1-((S)-2-oxopyrrolidin-3-yl)-4-(2,3,5,6-tetrafluorophenoxy)butan-2-yl)amino)propan-2-yl)-N2-(o-tolyl)oxalamide]	< 0.05
CC(C)(C)c1ccccc1NC(=O)C(=O)N[C@@H](CC1CCCCC1)C(=O)N[C@@H](C[C@@H]1CCNC1=O)C(=O)COc1c(F)c(F)cc(F)c1F [Compound 117, Nl-(2-(tert-butyl)phenyl)-N2-((S)-3-cyclohexyl-1-oxo-1-(((S)-3-oxo-1-((S)-2-oxopyrrolidin-3-yl)-4-(2,3,5,6-tetrafluorophenoxy)butan-2-yl)amino)propan-2-yl)oxalamide]	< 0.05
Cc1cc(C(=O)N[C@H](C(=O)N[C@@H](CC(C)C)C(=O)N[C@@H](C[C@@H]2CCNC2=O)C(=O)COc2c(F)c(F)cc(F)c2F)C(C)(C)C)no1 [Compound 118, N-((S)-3,3-dimethyl-1-(((S)-4-methyl-1-oxo-1-(((S)-3-oxo-1-((S)-2-oxopyrrolidin-3-yl)-4-(2,3,5,6-tetrafluorophenoxy)butan-2-yl)amino)pentan-2-yl)amino)-1-oxobutan-2-yl)-5-methylisoxazole-3-carboxamide]	0.2 to 0.5
CC(C)(C)[C@H](NC(=O)C(=O)Nc1ccccc1F)C(=O)N[C@@H](C[C@@H]1CCNC1=O)C(=O)COc1c(F)c(F)cc(F)c1F [Compound 119, N1-((S)-3,3-dimethyl-1-oxo-1-(((S)-3-oxo-1-((S)-2-oxopyrrolidin-3-yl)-4-(2,3,5,6-tetrafluorophenoxy)butan-2-yl)amino)butan-2-yl)-N2-(2-fluorophenyl)oxalamide]	0.2 to 0.5
COc1cccc(NC(=O)C(=O)N[C@@H](CC(C)C)C(=O)N[C@@H](C[C@@H]2CCNC2=O)C(=O)COc2c(F)c(F)cc(F)c2F)c1 [Compound 120, N1-(3-methoxyphenyl)-N2-((S)-4-methyl-1-oxo-1-(((S)-3-oxo-1-((S)-2-oxopyrrolidin-3-yl)-4-(2,3,5,6-tetrafluorophenoxy)butan-2-yl)amino)pentan-2-yl)oxalamide]	< 0.05
COc1ccc(NC(=O)C(=O)N[C@@H](CC(C)C)C(=O)N[C@@H](C[C@@H]2CCNC2=O)C(=O)COc2c(F)c(F)cc(F)c2F)cc1 [Compound 121, N1-(4-methoxyphenyl)-N2-((S)-4-methyl-1-oxo-1-(((S)-3-oxo-1-((S)-2-oxopyrrolidin-3-yl)-4-(2,3,5,6-tetrafluorophenoxy)butan-2-yl)amino)pentan-2-yl)oxalamide]	< 0.05
CC(C)C[C@H](NC(=O)C(=O)Nc1ccccc1)C(=O)N[C@@H](C[C@@H]1CCNC1=O)C(=O)COC(F)(F)F [Compound 122, N1-((S)-4-methyl-1-oxo-1-(((S)-3-oxo-1-((S)-2-oxopyrrolidin-3-yl)-4-(trifluoromethoxy)butan-2-yl)amino)pentan-2-yl)-N2-phenyloxalamide]	< 0.05
